Results on 1 compound are retold here after patent US11141383B1, “Drug loaded flexible chitoplexes nanoparticles” (King Abdulaziz University, priority 2020, dated 2021).

Data set [1] is described as follows: In vitro release study (dialysis bag, phosphate buffer pH 7.4). It counts as physicochemical. On the procedure:
The in vitro release of RSV from the prepared liposomal NPs, chitoplexes nano-formulation and pure drug suspension was studied. A quantity of each preparation containing 9 mg of drug was placed in a firmly sealed dialysis bag (Sigma-Aldrich Inc.) of a molecular weight cut-off 14 kDa. The dialysis bag was immersed in a glass bottle containing 400 mL phosphate buffer of pH 7.4. The bottles were kept in a shaking water bath (Model 1031; GFL Corporation, Burgwedel, Germany) at 37° C. and 100 rpm. The parameters of the in vitro release study were selected to achieve a sink condition. Aliquots of 2 mL were taken from the receptor compartment at predetermined time intervals with immediate replacement. The quantity of RSV in the withdrawn samples was determined spectrophotometrically at 242 nm. The experiment was done in triplicate for each formulation and mean values were calculated.

The subject of data set [2] is human colorectal (HCT-116) cells. Description: Cell viability and cytotoxicity assay (MTT). The settings on record: HCT-116, MTT. It counts as cell-based. The procedure:
This test aimed to determine the effect of the prepared RSV lipid-based NPs formulations on intestinal cell viability and cytotoxicity. The potential effects of both formulations on human colorectal (HCT-116) cells were assessed by 3-(4,5-dimethylthiazol-2-yl)2,5-diphenyl tetrazolium bromide (MTT) assay. Cells were seeded on 96-well plates (1×10^4 cells/well) and incubated at 37° C. under a humidified atmosphere of 5% CO2 for 24 h. […] Each formulation was compared with a drug-free carrier as a negative control. After incubation, SFM in the control and test wells were replaced by 100 μL/well of MTT solution (0.5 mg/ml) in PBS and incubated at 37° C. for another 3 h. The MTT solution was removed and the purple formazan crystals formed at the bottom of the wells were dissolved using 100 μL DMSO/well with shaking for 2 h at room temperature. The intensity of the color obtained was measured at 549 nm using a microplate reader (ELX 800; Bio-Tek Instruments, Winooski, Vt., USA). Data, expressed as the percentage of viable cells, were compared to the survival of a control group. Values of the half maximal inhibitory concentration (IC50) were also estimated. Cells treated with DMSO only were defined as 100%
To examine the biocompatibility and cytotoxic effects of plain and drug loaded liposomal NPs or chitoplexes nano-formulation, HCT-116 cells were treated with different concentrations of these samples for 3 days and the MTT assay was performed to investigate the effect of these formulation on the viability of living cells. This test depends on the production of a colored formazan by the action of the viable cells' mitochondrial enzymes on MTT. Cells were exposed to increasing RSV concentrations of drug loaded liposomal NPs and chitoplexes nano-formulation standardized at certain RSV concentrations. Cells were also incubated with blank liposomal NPs and chitoplexes nano-formulation to exclude the effect of RSV. […]

The conditions of data set [3]: cited from earlier work.
For data set [4] the following is noted: cited from earlier work. This is another data set of the same source.

Like-named read-outs stand apart in the source and are kept apart here.

With `CC(C)c1nc(N(C)S(C)(=O)=O)nc(-c2ccc(F)cc2)c1/C=C/[C@@H](O)C[C@@H](O)CC(=O)O` [RSV pure, Rosuvastatin], the “drug release after 24 h” value in data set [1] (dialysis bag 14 kDa, phosphate buffer pH 7.4, 37° C., 100 rpm, 24 h) was 37.28±2.86%. In data set [1] (dialysis bag, phosphate buffer pH 7.4, FIG. 4), the drug release pattern result is on record as “overall low drug release pattern”. For the same compound, the 50% inhibitory concentration (IC50) – broadly, the concentration needed to halve the response being measured – in data set [2] (after 24 h, read-out: IC50 (μM) after 24 h) was 248 µM. Moreover, in data set [2] (after 48 h, read-out: IC50 (μM) after 48 h), the IC50 amounted to 237 µM. Also, in data set [2] (after 72 h, read-out: IC50 (μM) after 72 h), the IC50 came out at 168 µM. Further, in data set [3] (in vivo), the elimination half-life is about 19 h, the excreted in feces is 90% and the “time to maximum plasma concentration” value is 3 to 5 h. The “bound to plasma protein” value in data set [3] (mainly to serum albumin) was 88%. For the same compound, in data set [3] (oral), the oral bioavailability was about 20% and the “orally administered dose absorbed” value is given as “about 25%”. In addition, in data set [4], the water solubility result was “low”.
